In BindingDB's records for doi:10.1016/j.chembiol.2011.03.012 (Riken Advanced Science Institute, 2011):

Molecular target: DNA topoisomerase 2-alpha (Homo sapiens, UniProt P11388)
Assay: Inhibition Assay
Details: pH 7.5; 4 °C
Source text: In vitro inhibition of TOP2 alpha activity by BNS derivatives.

Sequence of DNA topoisomerase 2-alpha (P11388 whole entry): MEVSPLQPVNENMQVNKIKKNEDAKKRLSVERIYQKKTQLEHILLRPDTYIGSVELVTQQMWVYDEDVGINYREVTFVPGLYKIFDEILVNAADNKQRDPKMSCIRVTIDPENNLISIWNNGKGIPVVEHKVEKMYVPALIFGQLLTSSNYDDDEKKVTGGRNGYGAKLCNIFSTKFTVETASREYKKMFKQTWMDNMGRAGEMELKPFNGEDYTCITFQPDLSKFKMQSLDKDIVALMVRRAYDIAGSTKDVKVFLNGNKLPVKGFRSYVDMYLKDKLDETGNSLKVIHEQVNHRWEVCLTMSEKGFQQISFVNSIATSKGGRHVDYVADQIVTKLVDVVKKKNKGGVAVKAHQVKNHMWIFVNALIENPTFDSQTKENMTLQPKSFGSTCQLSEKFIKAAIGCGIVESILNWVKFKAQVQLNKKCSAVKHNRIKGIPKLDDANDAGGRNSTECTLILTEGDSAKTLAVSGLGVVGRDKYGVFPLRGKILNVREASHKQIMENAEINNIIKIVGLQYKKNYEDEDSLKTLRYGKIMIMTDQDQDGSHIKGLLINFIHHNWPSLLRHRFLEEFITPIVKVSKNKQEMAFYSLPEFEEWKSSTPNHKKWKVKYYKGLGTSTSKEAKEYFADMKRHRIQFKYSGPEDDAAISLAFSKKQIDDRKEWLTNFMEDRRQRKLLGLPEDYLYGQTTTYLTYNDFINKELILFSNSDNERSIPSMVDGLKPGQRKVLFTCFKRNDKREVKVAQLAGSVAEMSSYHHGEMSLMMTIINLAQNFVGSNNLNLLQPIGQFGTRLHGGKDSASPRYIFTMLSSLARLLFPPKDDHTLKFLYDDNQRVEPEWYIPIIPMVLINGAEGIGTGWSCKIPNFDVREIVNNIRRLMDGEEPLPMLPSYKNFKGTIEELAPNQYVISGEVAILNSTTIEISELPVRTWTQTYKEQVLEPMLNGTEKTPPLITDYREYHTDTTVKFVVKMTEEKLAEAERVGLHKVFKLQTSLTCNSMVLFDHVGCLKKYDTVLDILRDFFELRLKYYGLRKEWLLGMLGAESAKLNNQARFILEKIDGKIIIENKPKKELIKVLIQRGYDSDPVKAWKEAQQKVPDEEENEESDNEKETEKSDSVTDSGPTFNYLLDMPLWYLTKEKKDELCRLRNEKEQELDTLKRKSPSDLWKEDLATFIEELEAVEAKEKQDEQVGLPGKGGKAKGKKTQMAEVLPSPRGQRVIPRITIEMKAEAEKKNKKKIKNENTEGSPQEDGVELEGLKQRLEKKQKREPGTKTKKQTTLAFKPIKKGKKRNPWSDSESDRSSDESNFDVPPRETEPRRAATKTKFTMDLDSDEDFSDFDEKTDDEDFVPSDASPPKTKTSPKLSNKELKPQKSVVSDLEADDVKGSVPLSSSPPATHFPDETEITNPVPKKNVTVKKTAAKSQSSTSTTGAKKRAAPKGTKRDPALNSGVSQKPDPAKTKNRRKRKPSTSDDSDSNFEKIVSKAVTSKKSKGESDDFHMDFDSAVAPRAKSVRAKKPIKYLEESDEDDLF

SMILES	IC50 [µM]
COC(=O)Cc1cc(=O)oc2c(C(=O)N3CCCc4ccccc43)c(OC)cc(OC)c12 [BNS-65]	8.2
CCCc1cc(=O)oc2c(C(=O)N3CCc4ccccc4C3)c(OC)cc(OC)c12 [BNS-52]	> 100
CCCc1cc(=O)oc2c(C(=O)N3CCCCC3)c(OC)cc(OC)c12 [BNS-54]	> 100

Further lines, results first:

IC50 [µM]	SMILES
> 100	CCCc1cc(=O)oc2c(C(=O)N3CCC(Cc4ccccc4)CC3)c(OC)cc(OC)c12 [BNS-53]
2.8	CCCc1cc(=O)oc2c(C(=O)N3CCCc4ccccc43)c(OC)cc(OC)c12 [BNS-22]
